Test results reported in PMC10245910 (bioRxiv, 2023).

Key:
BesD [1] = target: T1, BesD (Streptantibioticus cattleyicolor, UniProt G8XHD5); assay: UV-Vis MLCT band; format: binding; conditions: Fe(II) added; co-substrate
T1 sequence (G8XHD5 1-242): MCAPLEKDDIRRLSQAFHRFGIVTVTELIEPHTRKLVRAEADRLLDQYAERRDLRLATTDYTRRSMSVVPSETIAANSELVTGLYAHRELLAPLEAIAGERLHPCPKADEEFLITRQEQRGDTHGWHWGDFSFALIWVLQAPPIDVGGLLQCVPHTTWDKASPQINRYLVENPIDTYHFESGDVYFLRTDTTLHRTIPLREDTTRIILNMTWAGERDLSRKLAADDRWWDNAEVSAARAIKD

BesD [2] = target: T1, BesD; assay: UV-Vis MLCT shift; format: biochemical; conditions: BesD-Fe-2OG complex with lysine; anaerobic UV-Vis
BesD [3] = target: T1, BesD; assay: UV-Vis MLCT shift; format: biochemical; conditions: BesD-Fe-2OG complex with lysine; anaerobic UV-Vis; remark: listed apart in the source
BesD [4] = target: T1, BesD; assay: biochemical

O=C(O)CCC(=O)C(=O)O [2-oxoglutarate]
UV-Vis MLCT band (BesD [1]): Upon the addition of Fe^II and 2OG to BesD, an MLCT band forms

[N-]=[N+]=[N-] [azide]
UV-Vis MLCT shift; UPLC-MS/MS of azidation product (BesD [2]): perturbations of the MLCT band with azide and bromide are minimal until the addition of lysine

Br [bromide]
UV-Vis MLCT shift; UPLC-MS/MS of bromination product (BesD [3]): perturbations of the MLCT band with azide and bromide are minimal until the addition of lysine

NCCCC[C@H](N)C(=O)O [lysine]
Kd (BesD [4]): 50 µM
